Measured values published in PubChem BioAssay AID330 (DTP/NCI, 2004).
Where “and” joins values, the source holds several entries; their conditions need not be identical. Equal values may be shown once. Inconclusive results and toxic doses are left out.

Tested on: P388 leukemia ip, CD2F1 mice, survival T/C
Test: NCI In Vivo Anticancer Drug Screen. Data for tumor model P388 Leukemia (intraperitoneal) in CD2F1 (CDF1) mice
Conditions: endpoint: median survival time, higher = longer survival
Summary of the method: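 Mice carrying the transplanted tumor received test compound or vehicle. Survival was recorded in each group, and the value is the treated-group measurement divided by that of the vehicle-treated control group.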

[1] = dose: 50.0 mg/kg/injection, schedule: Q01DX009 (ip), vehicle: saline with Tween-80
[2] = dose: 100.0 mg/kg/injection, schedule: Q01DX009 (ip), vehicle: saline with Tween-80
[3] = dose: 200.0 mg/kg/injection, schedule: Q01DX009 (ip), vehicle: saline with Tween-80

## Cc1c2c(nn1C)CC(C)(C)OC2=O
dose: 100.0 mg/kg/injection, schedule: Q01DX001 (ip), vehicle: Klucel (hydroxypropylcellulose) (HPC)
  T/C: 95 % of control
dose: 200.0 mg/kg/injection, schedule: Q01DX001 (ip), vehicle: Klucel (hydroxypropylcellulose) (HPC)
  T/C: 100 % of control
dose: 400.0 mg/kg/injection, schedule: Q01DX001 (ip), vehicle: Klucel (hydroxypropylcellulose) (HPC)
  T/C: 101 % of control

## CCC(C)(C)c1ccc(OCCCCNC(=O)c2ccc3ccccc3c2O)c(C(C)(C)CC)c1
dose: 60.0 mg/kg/injection, schedule: Q01DX005 (ip), vehicle: Klucel (hydroxypropylcellulose) (HPC)
  T/C: 90 % of control
dose: 120.0 mg/kg/injection, schedule: Q01DX005 (ip), vehicle: Klucel (hydroxypropylcellulose) (HPC)
  T/C: 89 % of control
dose: 240.0 mg/kg/injection, schedule: Q01DX005 (ip), vehicle: Klucel (hydroxypropylcellulose) (HPC)
  T/C: 86 % of control

## Cc1ccc(NC(=O)/C(Cl)=C2/Sc3ccccc3NC2=O)cc1
dose: 60.0 mg/kg/injection, schedule: Q01DX005 (ip), vehicle: saline with Tween-80
  T/C: 96 % of control
dose: 120.0 mg/kg/injection, schedule: Q01DX005 (ip), vehicle: saline with Tween-80
  T/C: 100 % of control
dose: 240.0 mg/kg/injection, schedule: Q01DX005 (ip), vehicle: saline with Tween-80
  T/C: 95 % of control

## COc1ccc(OC)c(NC2=C(Cl)C(=O)C(Nc3cc(OC)ccc3OC)=C(Cl)C2=O)c1
dose: 12.5 mg/kg/injection, schedule: Q01DX009 (ip), vehicle: saline with Tween-80
  T/C: 98 % of control
dose: 25.0 mg/kg/injection, schedule: Q01DX009 (ip), vehicle: saline with Tween-80
  T/C: 97 % of control
[1]
  T/C: 90 % of control
[2]
  T/C: 87 % of control
[3]
  T/C: 91 % of control

## CCCCCCCCCCCC[N+]1(CCCCCCCCCCCC)CCCC(C)C1 (centres undefined)
dose: 0.75 mg/kg/injection, schedule: Q01DX009 (ip), vehicle: Klucel (hydroxypropylcellulose) (HPC)
  T/C: 113 % of control

## COc1ccc2nc(C)cc(N/N=C/c3cccc(C)n3)c2c1
dose: 12.5 mg/kg/injection, schedule: Q01DX009 (ip), vehicle: Klucel (hydroxypropylcellulose) (HPC)
  T/C: 99 % of control and 104 % of control
dose: 25.0 mg/kg/injection, schedule: Q01DX009 (ip), vehicle: Klucel (hydroxypropylcellulose) (HPC)
  T/C: 99 % of control and 105 % of control
dose: 50.0 mg/kg/injection, schedule: Q01DX009 (ip), vehicle: Klucel (hydroxypropylcellulose) (HPC)
  T/C: 113 % of control and 122 % of control

## c1coc(CNC2=NCCCCC2)c1
dose: 12.5 mg/kg/injection, schedule: Q01DX009 (ip), vehicle: saline
  T/C: 108 % of control
dose: 25.0 mg/kg/injection, schedule: Q01DX009 (ip), vehicle: saline
  T/C: 108 % of control
dose: 50.0 mg/kg/injection, schedule: Q01DX009 (ip), vehicle: saline
  T/C: 102 % of control

## CNC(=S)NNc1cccc2ccccc12
dose: 12.5 mg/kg/injection, schedule: Q01DX009 (ip), vehicle: other
  T/C: 97 % of control
dose: 25.0 mg/kg/injection, schedule: Q01DX009 (ip), vehicle: other
  T/C: 101 % of control
dose: 50.0 mg/kg/injection, schedule: Q01DX009 (ip), vehicle: other
  T/C: 100 % of control
dose: 100.0 mg/kg/injection, schedule: Q01DX009 (ip), vehicle: other
  T/C: 103 % of control and 96 % of control
dose: 200.0 mg/kg/injection, schedule: Q01DX009 (ip), vehicle: other
  T/C: 103 % of control and 96 % of control
dose: 400.0 mg/kg/injection, schedule: Q01DX009 (ip), vehicle: other
  T/C: 94 % of control

## Cc1cc(=O)n(-c2ccc(S(N)(=O)=O)cc2)c(C)c1C(=O)O
dose: 50.0 mg/kg/injection, schedule: Q01DX005 (ip), vehicle: saline with Tween-80
  T/C: 98 % of control
dose: 100.0 mg/kg/injection, schedule: Q01DX005 (ip), vehicle: saline with Tween-80
  T/C: 96 % of control
dose: 200.0 mg/kg/injection, schedule: Q01DX005 (ip), vehicle: saline with Tween-80
  T/C: 103 % of control

## Nc1ccc(Br)cc1[N+](=O)[O-]
[1]
  T/C: 101 % of control
[2]
  T/C: 107 % of control
[3]
  T/C: 100 % of control
dose: 400.0 mg/kg/injection, schedule: Q01DX009 (ip), vehicle: saline with Tween-80
  T/C: 117 % of control

## CC1(C)N=C(N)N=C(N)N1c1ccc(F)c(C(F)(F)F)c1
dose: 1.0 mg/kg/injection, schedule: Q01DX009 (ip), vehicle: saline
  T/C: 118 % of control
dose: 4.0 mg/kg/injection, schedule: Q08DX002 (ip), vehicle: saline
  T/C: 119 % of control
dose: 8.0 mg/kg/injection, schedule: Q01DX009 (ip), vehicle: saline
  T/C: 170 % of control
dose: 8.0 mg/kg/injection, schedule: Q08DX002 (ip), vehicle: saline
  T/C: 120 % of control
dose: 16.0 mg/kg/injection, schedule: Q01DX009 (ip), vehicle: saline
  T/C: 181 % of control
dose: 32.0 mg/kg/injection, schedule: Q01DX001 (ip), vehicle: saline
  T/C: 121 % of control
dose: 32.0 mg/kg/injection, schedule: Q01DX009 (ip), vehicle: saline
  T/C: 190 % of control
dose: 64.0 mg/kg/injection, schedule: Q01DX001 (ip), vehicle: saline
  T/C: 121 % of control
dose: 64.0 mg/kg/injection, schedule: Q01DX009 (ip), vehicle: saline
  T/C: 90 % of control
dose: 128.0 mg/kg/injection, schedule: Q01DX001 (ip), vehicle: saline
  T/C: 122 % of control
